Test system: enkephalinase
Assay: not given
Conditions: cited from earlier work

| SMILES | inhibitor of enkephalinase in vitro |
| --- | --- |
| O=C(O)CNC(=O)C(CS)Cc1ccccc1 (racemic) [thiorphan, [(DL-3-mercapto-2-benzylpropanoyl)]-glycine] | inhibitor of enkephalinase in vitro in nanomolar concentration |

Target: T1, enkephalinase purified from membrane fractions of sheep corpus striatum (Ovis aries, UniProt A0ACI6S0K5)
T1 sequence (A0ACI6S0K5 2-750): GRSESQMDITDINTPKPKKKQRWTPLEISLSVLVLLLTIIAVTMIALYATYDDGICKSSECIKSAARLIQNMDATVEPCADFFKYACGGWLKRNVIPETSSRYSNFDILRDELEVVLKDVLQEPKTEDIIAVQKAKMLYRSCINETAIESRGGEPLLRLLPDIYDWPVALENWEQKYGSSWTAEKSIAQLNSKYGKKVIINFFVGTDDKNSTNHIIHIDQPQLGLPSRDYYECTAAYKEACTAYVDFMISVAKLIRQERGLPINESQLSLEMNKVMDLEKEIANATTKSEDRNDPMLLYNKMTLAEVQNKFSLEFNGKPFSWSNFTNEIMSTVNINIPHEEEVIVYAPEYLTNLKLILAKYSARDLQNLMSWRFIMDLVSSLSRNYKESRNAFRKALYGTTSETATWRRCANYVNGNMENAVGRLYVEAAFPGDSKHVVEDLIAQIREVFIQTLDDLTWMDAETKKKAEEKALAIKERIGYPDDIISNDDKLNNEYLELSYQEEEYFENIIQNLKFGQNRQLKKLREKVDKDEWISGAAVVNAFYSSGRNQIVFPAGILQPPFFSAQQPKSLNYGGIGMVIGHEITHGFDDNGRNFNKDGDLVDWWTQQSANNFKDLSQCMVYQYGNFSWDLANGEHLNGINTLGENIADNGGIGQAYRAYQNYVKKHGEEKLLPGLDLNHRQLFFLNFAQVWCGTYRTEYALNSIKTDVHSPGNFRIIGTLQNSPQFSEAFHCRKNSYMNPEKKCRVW
Assay: inhibition of cleavage of [^3 H-Tyr^1, Leu^5 ]-enkephalin by purified enkephalinase (radiochromatographic method)
Assay type: biochemical
Conditions: 70 nM substrate, pH 7.0, 15 minutes at 37°; called I50
Method: Frozen sheep striatia were homogenized in 20 volumes of 50 mM Tris (i.e., 2-amino-2-hydroxymethyl-1,3-propanediol)-hydrochloric acid buffer, pH 7.7, and centrifuged at 37,000×g. for 15 minutes. The sedimented material (membrane fraction), after being washed three times by resuspension and recentrifugation, was solubilized by stirring with half the original volume of 50 mM Tris-hydrochloric acid buffer, pH 7.7, containing 1% Triton X-100 (i.e., polyethylene glycol p-isooctylphenyl ether) nonionic detergent, followed by centrifugation for 2 hours at 37,000×g. […] Protein was eluted from the column with a one liter gradient of 0-0.4 M sodium chloride in the same buffer mixture, with 8.7 ml. fractions being collected.
Activity of the enzyme for purification and inhibitor studies was determined by the following radiochromatographic method. […] An aliquot of 0.01 ml. of acidified reaction mixture was spotted onto a Whatman LK 50 silica gel thin-layer chromatography plate along with the appropriate peptide standards. After development of the plate in a solvent composed of isopropanol:ethyl acetate:5% acetic acid (2:2:1), the spots corresponding to Tyr, Tyr-Gly, Tyr-Gly-Gly, and unreacted enkephalin (Tyr-Gly-Gly-Phe-Leu), as visualized with ninhydrin reaction, were scraped from the plate, and the incorporated radioactivity was counted in a liquid scintillation counter.

| IC50 [nM] | SMILES |
| --- | --- |
| 150 | CC(CS)C(=O)N[C@@H](CCCNC(=N)N)C(=O)O (mixture of isomers) [Ex. 1, N-(DL-3-Mercapto-2-methyl-1-oxopropyl)-L-arginine] |
| 85 | N=C(N)NCCC[C@H](NC(=O)C(CS)Cc1ccccc1)C(=O)O (mixture of isomers) [Ex. 2, N-[DL-2-(Mercaptomethyl)-1-oxo-3-phenylpropyl]-L-arginine] |
| 5 | CC(CS)C(=O)N[C@@H](Cc1c[nH]c2ccccc12)C(=O)O (mixture of isomers) [Ex. 3, N-(DL-3-Mercapto-2-methyl-1-oxopropyl)-L-tryptophan] |
| 2.5 | CC(CS)C(=O)N[C@@H](Cc1ccc(O)cc1)C(=O)O (mixture of isomers) [Ex. 4, N-(DL-3-Mercapto-2-methyl-1-oxopropyl)-L-tyrosine] |
| 5 | CC(CS)C(=O)N[C@@H](Cc1ccc(O)c(O)c1)C(=O)O (mixture of isomers) [Ex. 5, 3-Hydroxy-N-(DL-3-mercapto-2-methyl-1-oxopropyl)-L-tyrosine] |
| 30 | CC(C)CC(CS)C(=O)N[C@@H](CCCNC(=N)N)C(=O)O (mixture of isomers) [Ex. 7, (±)-N^2-[2-(Mercaptomethyl)-4-methyl-1-oxopentyl]-L-arginine] |
| 2.5 | C[C@H](CS)C(=O)N[C@@H](Cc1ccc(O)c(O)c1)C(=O)O [Ex. 6, 3-Hydroxy-N-(D-3-mercapto-2-methyl-1-oxopropyl)-L-tyrosine] |
